From US20110086891A1, “Solid Forms of 2-(2,4-Difluorophenyl)-6-(1-(2,6-Difluorophenyl)Ureido)Nicotinamide)” (Vertex Pharmaceuticals Incorporated, priority 2009, published 2011) come the findings set out here.

Holding throughout (type): physicochemical
Data set [1] in a line: Stability studies at 40° C./75% RH (physical and chemical stability, XRPD). An excerpt:
In some embodiments, less than 25% of the solid form of Compound I decomposes, in some embodiments, less than about 20%, less than about 15%, less than about 10%, less than about 5%, less than about 3%, less than about 1%, less than about 0.5% of the form of Compound I decomposes under the conditions specified. In some embodiments, no detectable amount of the solid form of Compound I decomposes. […] In some embodiments, less than 25% of the solid form of Compound I changes into one or more different physical forms when subjected to specified conditions. In some embodiments, less than about 20%, less than about 15%, less than about 10%, less than about 5%, less than about 3%, less than about 1%, less than about 0.5% of the solid form of Compound I changes into one or more different physical forms of Compound I when subjected to specified conditions. In some embodiments, no detectable amount of the solid form of Compound I changes into one or more physically different solid forms of Compound I.

A short description of data set [2]: Solid form conversion on heating, cooling, storage, slurrying or addition of water (XRPD, VT-XRD). To be noted: for form conversion upon slurrying in a non-solvate forming solvent: slurry, MeOH and water (MeOH:H2O 1:1). How it is done: Another form, Form P, was detected during the MeOH re-crystallization step used to prepare Form C from Form A. Form P is characterized below. When variable-temperature X-Ray diffraction (VT-XRD) of Form P was carried out in 5° C. increments from 25 to 50° C. and the resulting solid was cooled back to ambient conditions, it was observed that Form P transitions to Form A at approximately 40° C. and returns to Form P upon cooling back to room temperature. […] Both Form A and Form P are MeOH solvates.
1. Bruker D8 Discover with HighStar array detector with an accelerator voltage of 40 kV and current of 35 mA over a 120 second acquisition time. Each sample was prepared in a nickel sample holder and the subsequent pattern collected over two frames with a 2θ range of 4-41°. Variable temperature X-Ray diffraction (VT-XRD) was accomplished with a DHS900 Anton Paar heating stage with a TCU150 controller with a heating rate between steps of 10° C./min and an equilibration time of 5 minutes at temperature. 2. Siemens D5000 diffractometer using CuKα radiation (40 kV, 40 mA), θ-θ goniometer, automatic divergence and receiving slits, a graphite secondary monochromator and a scintillation counter. The data were collected over an angular 2 theta range of 2° to 42° in continuous scan mode using a step size of 0.02° and a step time of 1 second. Samples were run under ambient conditions and prepared as flat plate specimens using powder as received without grinding. Approximately 1-2 mg of the sample was slightly pressed on a glass slide to obtain a flat surface. Samples run under non-ambient conditions were mounted on a silicon wafer with heat conducting compounds. The sample was then heated to the appropriate temperature at ca. 20° C./min and subsequently held isothermally for ca 1 minute before data collection was initiated. 3. Bruker AXS C2 GADDS Diffractometer using CuKα radiation (40 kV, 40 mA), automated XYZ stage, laser video microscope for auto-sample positioning and a HiStar 2-dimensional area detector. X-Ray optics consists of a single Gobel multilayer mirror coupled with a pinhole collimator of 0.3 mm. Beam divergence, was approximately 4 mm. A θ-θ continuos scan mode was employed with a sample to detector distance of 20 cm which gives an effective 2θ range of 3.2-29.8°. A typical exposure time of a sample in this system would be 120 s. Samples were run under ambient conditions and prepared as flat plate specimens using powder as received without grinding. Approximately 25-50 mg of the sample was gently packed into 12 mm diameter, 0.5 mm deep cavities cut into polished, zero-background (510) silicon wafers (from The Gem Dugout). All specimens were run both stationary and rotated on their own plate during analysis. A further specimen was run using silicon powder as internal standard to correct for any peak displacement. Diffraction data were reported using Cu Kαl (l=1.5406 Å), after the Kαl component had been stripped using EVA, the powder patterns were indexed by the ITO method using WIN-INDEX and the raw lattice constants refined using WIN-METRIC. 4. Shimadzu XRD-6000 X-Ray powder diffractometer using CuKα radiation (40 kV, 40 mA) equipped with a fine-focus X-Ray tube. Divergence and Scattering slids were set at 1° and the receiving slit was set at 0.15 mm. A NaI scintillation detector detected diffracted irradiation. A θ-2θ continuous scan at 3°/min (0.4 sec/0.02° step) from 2.5° to 40° was used. A silicon standard was analyzed each day to check the instrument alignment. Each sample was prepared for analysis by pressing it onto the sample holder. 5. Inel XRG-3000 X-Ray powder diffractometer using CuKα radiation (40 kV, 30 mA). This was equipped with a curved position-sensitive detector. Data was collected in real time over a 2 θ range of 120° at a resolution of 0.03°. Samples were packed in an aluminum holder with a silicon insert and analyzed. A silicon standard was analyzed each day to check for instrument alignment. […]

A short description of data set [3]: Solubility analysis (in water). Particulars: 25° C. The protocol:
This was measured by suspending enough Compound I in 0.25 mL of solvent (water) to give a maximum final concentration of ≧10 mg/ml of the parent free form of the compound. The suspension was equilibrated at 25° C. for 24 hrs followed by a pH check and filtration through a glass fibre C96 well plate. The filtrate was then diluted down by a factor of 101. Quantitation was by HPLC (Table XI) with reference to a standard, diluted and undiluted tests were injected. The solubility was calculated by integration of the peak area found at the same retention time as the peak maximum in the standard injection. If there is sufficient solid in the filter plate the XRPD is normally checked for phase changes, hydrate formation, amorphization, crystallization, etc.

Data set [4] in a line: Gravimetric vapour sorption (GVS) studies. How it is done:
All samples were run on a Hiden IGASorp moisture sorption analyzer running CFRSorp software. Sample sizes were typically 10 mg. A moisture absorption-desorption isotherm was performed as outlined below in Table X (2 scans giving 1 complete cycle). All samples were loaded/unloaded at typical room humidity and temperature (40% RH, 25° C.). All samples were analysed by XRPD post GVS analysis. The standard isotherm was performed at 25° C. at 10% RH intervals over a 0-90% RH range.

Data set [5] in a line: Relative stability studies: slurrying 1:1 mixtures of forms in 3:1 water:ethanol at various temperatures. To be noted: slurry in 3:1 water:ethanol. The protocol:
1:1 mixtures of Form C and form G of Compound I were slurried in 3:1 water:ethanol at a range of temperatures to determine the relative stability at different temperatures. 5 mg of Form C was mixed with 5 mg of Form G in a glass vial. 1.0 ml of 3:1 water:ethanol was added and the resulting slurry was stirred at 5° C. for 10 days. The resulting solid was isolated by filtration and analysed by XRPD (see FIG. 17).
(§1) The above procedure was repeated at 25, 50 and 80° C.
1:1 mixtures of Form C and Form F were slurried in 3:1 water:ethanol at a range of temperatures to determine the relative stability at different temperatures. […] Ethanol was used in addition to water in order to increase the amount of Compound I in solution and so increase the rate of conversion between forms. Ethanol was chosen as no ethanol solvate of Compound I was known. 10 mg of Form C was mixed with 10 mg of Form F in a glass vial. 2.0 ml of 3:1 water:ethanol was added and the resulting slurry was stirred at 5° C. for 24 hours. Solid was isolated by filtration and analysed by XRPD.
as §1
1:1 mixtures of Form F and Form G were slurried in 3:1 water:ethanol at a range of temperatures to determine the relative stability at different temperatures. 10 mg of Form F was mixed with 10 mg of Form G in a glass vial. 2.0 ml of 3:1 water:ethanol was added and the resulting slurry was stirred at 5° C. for 24 hours. The resulting solid was isolated by filtration and analysed by XRPD. The above procedure was repeated at 25, 50 and 70° C. 70° C. was used instead of 80° C. in an attempt to reduce degradation.

A short description of data set [6]: Apparent solubilities of Form A at room temperature and at 60° C. Particulars: thermodynamic from solid.

Values after ≈ are worked out from the molar mass of the structure shown. “Also recorded” adds a separate entry of the source.

For orientation: solubility means the dissolved amount per volume that the medium holds.

As for `NC(=O)c1ccc(N(C(N)=O)c2c(F)cccc2F)nc1-c1ccc(F)cc1F` [Form P, 2-(2,4-difluorophenyl)-6-(1-(2,6-difluorophenyl)ureido)nicotinamide•MeOH], in data set [1], the “results of stability studies as seen by XRPD (before and after spectra)” value (from here on “results of stability studies as seen”) is “before and after spectra illustrate formation of Form C”. For the same compound, in data set [2] (VT-XRD, 5° C. increments from 25 to 50° C.), the “temperature of transition of Form P to Form A” value is “approximately 40 °C”. In data set [2], the “form conversion on heating” value was “convert to Form A upon heating to 50 °C and then to Form C upon heating to 100 °C”; the “form conversion upon slurrying in a non-solvate forming solvent” value was “convert to Form C”. The “relative stability of Form A and Form P” value in data set [2] (room temperature, VT-XRD) is given as “the more stable of the two at room temperature”.

For the compound `NC(=O)c1ccc(N(C(N)=O)c2c(F)cccc2F)nc1-c1ccc(F)cc1F` [Form G, 2-(2,4-difluorophenyl)-6-(1-(2,6-difluorophenyl)ureido)nicotinamide], the solubility in water result in data set [3] is recorded as “at least 0.020 mg/mL”. In addition, the “results of stability studies as seen” value in data set [1] was “before and after spectra are similar”. In data set [1] (40° C./75% RH), the “time remaining chemically stable” value is reported as “at least two” and the “time remaining in substantially the same physical form” value is “at least two”. Further, in data set [4], the hygroscopicity entry is “highly hygroscopic” and the “weight gain in water at 90% RH” value is “more than 8%”. The “total water gain (in weight) at 10% RH” value in data set [4] (10% RH) was 1%. Besides, the “relative stability between forms” value in data set [5] was “more stable than Form F at 5 °C”. Also, the “form conversion after the addition of water” value in data set [2] (20° C. to 50° C., 2, 5 and 24 hours after addition of water) is “convert into Form Q”. Also, in data set [2], the “form conversion on heating” value is “converted into Form F on heating above about 130 °C”.

On to `NC(=O)c1ccc(N(C(N)=O)c2c(F)cccc2F)nc1-c1ccc(F)cc1F` [Form F, 2-(2,4-difluorophenyl)-6-(1-(2,6-difluorophenyl)ureido)nicotinamide], for which the solubility in water entry in data set [3] is recorded as “at least 0.021 mg/mL”. In data set [1] (40° C./75% RH), the “time remaining chemically stable” value is given as “at least 2 weeks” and the “time remaining in substantially the same physical form” value is “at least 2 weeks”. Also, the “total weight gain in water at 40% RH” value in data set [4] (40% RH) came out at 1%. Besides, in data set [4], the “weight gain in water at 90% RH” value came to 1.1%. Also, the “fate of the form on slurrying” value in data set [5] is “At 5 and 25° C., Form F was observed to convert to Form G; also recorded: not recovered after slurrying at any of the four temperatures”.

With `NC(=O)c1ccc(N(C(N)=O)c2c(F)cccc2F)nc1-c1ccc(F)cc1F` [Form A, 2-(2,4-difluorophenyl)-6-(1-(2,6-difluorophenyl)ureido)nicotinamide•MeOH], the solubility in data set [6] (organic solvent or mixture, 60° C., 1-Butanol) is 2900 µg/mL (≈ 7.17 mM); in data set [6] (organic solvent or mixture, 60° C., Butyl Acetate), 1900 µg/mL (≈ 4.7 mM); in data set [6] (organic solvent or mixture, room temperature, 1-Butanol), 2000 µg/mL (≈ 4.95 mM); in data set [6] (organic solvent or mixture, room temperature, 2-Butanone) it was 3400 µg/mL (≈ 8.41 mM); in data set [6] (organic solvent or mixture, room temperature, 2-Propanol), under 800 µg/mL; in data set [6] (organic solvent or mixture, room temperature, 2-Propyl Acetate), 2900 µg/mL (≈ 7.17 mM). Further, the solubility in data set [6] (organic solvent or mixture, room temperature, Acetone) is 6400 µg/mL (≈ 15.8 mM); in data set [6] (organic solvent or mixture, room temperature, Acetonitrile) it was 3800 µg/mL (≈ 9.4 mM); in data set [6] (organic solvent or mixture, room temperature, Dimethylformamide), over 100000 µg/mL; in data set [6] (organic solvent or mixture, room temperature, Ethanol), 5700 µg/mL (≈ 14.1 mM); in data set [6] (organic solvent or mixture, room temperature, Ethyl Acetate), 7200 µg/mL (≈ 17.8 mM); in data set [6] (organic solvent or mixture, room temperature, Heptane), under 900 µg/mL. In addition, the solubility in data set [6] (organic solvent or mixture, room temperature, Methanol) is 5700 µg/mL (≈ 14.1 mM); in data set [6] (organic solvent or mixture, room temperature, Methylene Chloride) it was under 800 µg/mL; in data set [6] (organic solvent or mixture, room temperature, Tetrahydrofuran) it was 1500 µg/mL (≈ 3.71 mM); in data set [6] (room temperature, Water), under 900 µg/mL. Besides, in data set [1], the “results of stability studies as seen” value was “before and after spectra illustrate formation of Form C”. For the same compound, the “form conversion upon storage” value in data set [1] (40° C./75% RH) was “become Form C described herein after one to four weeks; also recorded: convert to Form C upon storage at 40° C./75% RH for one week or longer”. Moreover, the “form conversion on cooling” value in data set [2] (cooling) was “convert to Form P upon cooling below about 50 °C”. Besides, the “form conversion on heating” value in data set [2] was “become crystalline Form C upon heating to 100 °C”. Also, the “form conversion upon slurrying in a non-solvate forming solvent” value in data set [2] is on record as “become crystalline Form C”.
